Several values for one entry are separate records, joined by “and”; a condition that tells them apart may be missing. Identical values can stand only once. Inconclusive results and toxic doses are left out.
System: P388 leukemia ip, CD2F1 mice, survival T/C
Assay: NCI In Vivo Anticancer Drug Screen. Data for tumor model P388 Leukemia (intraperitoneal) in CD2F1 (CDF1) mice
Conditions: endpoint: median survival time, higher = longer survival
In short: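 Mice carrying the transplanted tumor received test compound or vehicle. Survival was recorded in each group, and the value is the treated-group measurement divided by that of the vehicle-treated control group.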

[1] = dose: 50.0 mg/kg/injection, schedule: Q01DX005 (ip), vehicle: saline with Tween-80
[2] = dose: 100.0 mg/kg/injection, schedule: Q01DX005 (ip), vehicle: saline with Tween-80
[3] = dose: 200.0 mg/kg/injection, schedule: Q01DX005 (ip), vehicle: saline with Tween-80
[4] = dose: 60.0 mg/kg/injection, schedule: Q01DX005 (ip), vehicle: saline with Tween-80
[5] = dose: 50.0 mg/kg/injection, schedule: Q04DX003 (ip), vehicle: saline with Tween-80
[6] = dose: 100.0 mg/kg/injection, schedule: Q04DX003 (ip), vehicle: saline with Tween-80
[7] = dose: 120.0 mg/kg/injection, schedule: Q01DX005 (ip), vehicle: saline with Tween-80
[8] = dose: 240.0 mg/kg/injection, schedule: Q01DX005 (ip), vehicle: saline with Tween-80
[9] = dose: 12.5 mg/kg/injection, schedule: Q01DX009 (ip), vehicle: saline
[10] = dose: 50.0 mg/kg/injection, schedule: Q01DX009 (ip), vehicle: saline
[11] = dose: 100.0 mg/kg/injection, schedule: Q01DX009 (ip), vehicle: saline
[12] = dose: 60.0 mg/kg/injection, schedule: Q01DX005 (ip), vehicle: Klucel (hydroxypropylcellulose) (HPC)
[13] = dose: 120.0 mg/kg/injection, schedule: Q01DX005 (ip), vehicle: Klucel (hydroxypropylcellulose) (HPC)
[14] = dose: 240.0 mg/kg/injection, schedule: Q01DX005 (ip), vehicle: Klucel (hydroxypropylcellulose) (HPC)
[15] = dose: 60.0 mg/kg/injection, schedule: Q01DX005 (ip), vehicle: saline
[16] = dose: 120.0 mg/kg/injection, schedule: Q01DX005 (ip), vehicle: saline
[17] = dose: 200.0 mg/kg/injection, schedule: Q01DX009 (ip), vehicle: saline
[18] = dose: 50.0 mg/kg/injection, schedule: Q01DX009 (ip), vehicle: Klucel (hydroxypropylcellulose) (HPC)
[19] = dose: 100.0 mg/kg/injection, schedule: Q01DX009 (ip), vehicle: Klucel (hydroxypropylcellulose) (HPC)

COc1ccc(C(=NCCO)c2ccc(O)cc2)c(OC)c1
T/C [1]: 104 % of control
T/C [2]: 92 % of control
T/C [3]: 91 % of control

CCOC(=O)c1ccc(N(CC(O)CN)S(=O)(=O)c2ccc(C)cc2)cc1 (stereo not given)
T/C (dose: 15.0 mg/kg/injection, schedule: Q01DX005 (ip), vehicle: saline with Tween-80): 102 % of control
T/C (dose: 30.0 mg/kg/injection, schedule: Q01DX005 (ip), vehicle: saline with Tween-80): 101 % of control
T/C [4]: 101 % of control and 92 % of control

Cc1cnc(Cl)nc1Sc1nc(N)nc2nc[nH]c12
T/C (dose: 4.0 mg/kg/injection, schedule: Q01DX009 (ip), vehicle: saline with Tween-80): 150 % of control
T/C (dose: 12.5 mg/kg/injection, schedule: Q01DX009 (ip), vehicle: saline with Tween-80): 122 % of control
T/C (dose: 25.0 mg/kg/injection, schedule: Q04DX003 (ip), vehicle: saline with Tween-80): 154 % of control
T/C [5]: 159 % of control
T/C [6]: 100 % of control

O=C(Nc1ccc(Cl)cc1)Oc1ccc(Cl)cc1C(=O)c1ccccc1
T/C [4]: 111 % of control
T/C [7]: 110 % of control
T/C [8]: 112 % of control

O=C(NC(CO)C(=O)OCc1ccccc1)OCc1ccccc1 (stereo not given)
T/C (dose: 100.0 mg/kg/injection, schedule: Q01DX009 (ip), vehicle: saline with Tween-80): 90 % of control
T/C (dose: 200.0 mg/kg/injection, schedule: Q01DX009 (ip), vehicle: saline with Tween-80): 90 % of control
T/C (dose: 400.0 mg/kg/injection, schedule: Q01DX009 (ip), vehicle: saline with Tween-80): 95 % of control

O=CNc1cccnc1C1OCCO1
T/C (dose: 50.0 mg/kg/injection, schedule: Q01DX005 (ip), vehicle: Klucel (hydroxypropylcellulose) (HPC)): 98 % of control
T/C (dose: 100.0 mg/kg/injection, schedule: Q01DX005 (ip), vehicle: Klucel (hydroxypropylcellulose) (HPC)): 102 % of control
T/C (dose: 200.0 mg/kg/injection, schedule: Q01DX005 (ip), vehicle: Klucel (hydroxypropylcellulose) (HPC)): 102 % of control

COc1c2c(nc3ccccc13)-c1cc3c(c(=O)n1C2)COC(=O)C3(O)CC(=O)N1CCOCC1 (stereo not given)
T/C [9]: 150 % of control
T/C [10]: 160 % of control
T/C [11]: 161 % of control
T/C (dose: 100.0 mg/kg/injection, schedule: Q01DX009 (ip), vehicle: suspension in saline): 169 % of control
T/C (dose: 200.0 mg/kg/injection, schedule: Q01DX009 (ip), vehicle: suspension in saline): 104 % of control

COC(=O)c1cc2cnc1CSCc1cnc(c(C(=O)OC)c1)CSC2
T/C [1]: 96 % of control
T/C [2]: 96 % of control
T/C [3]: 96 % of control

CC(C)(C)N=C(NC#N)Nc1cccnc1Cl
T/C (dose: 100.0 mg/kg/injection, schedule: Q04DX002 (ip), vehicle: saline with Tween-80): 103 % of control
T/C (dose: 200.0 mg/kg/injection, schedule: Q04DX002 (ip), vehicle: saline with Tween-80): 94 % of control
T/C (dose: 400.0 mg/kg/injection, schedule: Q04DX002 (ip), vehicle: saline with Tween-80): 92 % of control

O=C(O)c1ccccc1Nc1ccccc1[N+](=O)[O-]
T/C (dose: 50.0 mg/kg/injection, schedule: Q04DX003 (ip), vehicle: saline): 94 % of control
T/C (dose: 100.0 mg/kg/injection, schedule: Q04DX003 (ip), vehicle: saline): 99 % of control
T/C (dose: 200.0 mg/kg/injection, schedule: Q04DX003 (ip), vehicle: saline): 102 % of control
T/C (dose: 400.0 mg/kg/injection, schedule: Q04DX003 (ip), vehicle: saline): 105 % of control

O=c1oc2c(c(N(c3ccccc3)c3ccccc3)c1Cl)CCc1nc(-c3ccccc3)sc1-2
T/C [1]: 91 % of control
T/C [2]: 94 % of control
T/C [3]: 88 % of control

COc1ccc(/C=C/C2C(C#N)(C#N)C(OC)(OC)C2(OC)OC)cc1 (stereo not given)
T/C [12]: 101 % of control
T/C [13]: 102 % of control
T/C [14]: 98 % of control

COC1(OC)C(c2ccc([N+](=O)[O-])cc2)C([N+](=O)[O-])C1(OC)OC (stereo not given)
T/C [12]: 90 % of control
T/C [13]: 93 % of control
T/C [14]: 89 % of control

COC1=NC2=NC(OC)=NC3=C(Br)C=C(Br)C(=N1)N23
T/C [12]: 91 % of control
T/C [13]: 92 % of control
T/C [14]: 87 % of control

NC(=O)C1(Br)C=[N+](Cc2ccccc2)CCC1 (stereo not given)
T/C [15]: 103 % of control
T/C [16]: 95 % of control

CN1C(=O)Cn2c(nn(CCN3CCOCC3)c(=O)c2=O)-c2cc(Cl)ccc21
T/C [10]: 99 % of control
T/C [11]: 102 % of control
T/C [17]: 105 % of control

CCn1cnc2sc3c(c2c1=O)CCCC3
T/C [4]: 97 % of control
T/C [7]: 98 % of control

CC1CN2C(=O)NC(=O)C1(c1ccccc1)C2=O (stereo not given)
T/C [18]: 100 % of control
T/C [19]: 93 % of control
T/C (dose: 200.0 mg/kg/injection, schedule: Q01DX009 (ip), vehicle: Klucel (hydroxypropylcellulose) (HPC)): 97 % of control

CCNC(=O)C1CCN(Cc2c[nH]c3ccccc23)CC1
T/C [5]: 113 % of control
T/C [6]: 93 % of control
T/C (dose: 200.0 mg/kg/injection, schedule: Q04DX003 (ip), vehicle: saline with Tween-80): 102 % of control

Cc1cc(-n2nnc3ccccc3c2=O)on1
T/C [12]: 114 % of control
T/C [13]: 101 % of control
T/C [14]: 119 % of control

Nc1ccccc1-c1ccccc1[N+](=O)[O-]
T/C [10]: 95 % of control
T/C [11]: 96 % of control
T/C [17]: 95 % of control

Nc1nnc(COc2ccc(Cl)cc2)n1N
T/C [4]: 107 % of control
T/C [7]: 108 % of control

O=C(c1cccc(C(=O)N2CCCC2)n1)N1CCCC1
T/C [15]: 102 % of control
T/C [16]: 102 % of control
T/C (dose: 240.0 mg/kg/injection, schedule: Q01DX005 (ip), vehicle: saline): 109 % of control

O=C1O[C@@H]2C3COC(O)[C@](O)(O3)[C@@H]2/C1=C\c1ccc(O)cc1 (stereo not given in full)
T/C (dose: 4.0 mg/kg/injection, schedule: Q01DX005 (ip), vehicle: DMSO): 115 % of control
T/C (dose: 8.0 mg/kg/injection, schedule: Q01DX005 (ip), vehicle: DMSO): 109 % of control
T/C (dose: 16.0 mg/kg/injection, schedule: Q01DX005 (ip), vehicle: DMSO): 113 % of control
T/C (dose: 32.0 mg/kg/injection, schedule: Q01DX005 (ip), vehicle: DMSO): 113 % of control

COC(=O)c1nc(=S)[nH]c(C(=O)OC)c1C(=O)c1ccccn1
T/C (dose: 60.0 mg/kg/injection, schedule: Q01DX005 (ip), vehicle: Klucel + Tween-80): 105 % of control
T/C (dose: 120.0 mg/kg/injection, schedule: Q01DX005 (ip), vehicle: Klucel + Tween-80): 95 % of control
T/C (dose: 240.0 mg/kg/injection, schedule: Q01DX005 (ip), vehicle: Klucel + Tween-80): 95 % of control

CCN=C(CC(=O)C12CC3CC(CC(C3)C1)C2)N(CC)CC
T/C [9]: 109 % of control
T/C (dose: 25.0 mg/kg/injection, schedule: Q01DX009 (ip), vehicle: saline): 112 % of control
T/C [10]: 100 % of control and 103 % of control

OC(CN1CCOCC1)c1ccccn1 (stereo not given)
T/C [10]: 95 % of control
T/C [11]: 92 % of control
T/C [17]: 92 % of control

NC1CCC2CCCCC2C1 (stereo not given)
T/C (dose: 100.0 mg/kg/injection, schedule: Q01DX001 (ip), vehicle: saline): 100 % of control
T/C (dose: 200.0 mg/kg/injection, schedule: Q01DX001 (ip), vehicle: saline): 104 % of control

O=[N+]([O-])c1cc(CN(CCO)CCO)c(O)c2ncccc12
T/C [4]: 104 % of control
T/C [7]: 109 % of control

O=C(O)O.[Eu]
T/C [10]: 95 % of control
T/C [17]: 93 % of control

O=S1(=O)C[CH-]C1.[C-]#[O+].[C-]#[O+].[C-]#[O+].[W].[c-]1[c-][c-][cH-][c-]1
T/C (dose: 0.78 mg/kg/injection, schedule: Q01DX009 (ip), vehicle: saline with Tween-80): 98 % of control
T/C (dose: 1.56 mg/kg/injection, schedule: Q01DX009 (ip), vehicle: saline with Tween-80): 93 % of control
T/C (dose: 3.13 mg/kg/injection, schedule: Q01DX009 (ip), vehicle: saline with Tween-80): 94 % of control
T/C (dose: 6.25 mg/kg/injection, schedule: Q01DX009 (ip), vehicle: saline with Tween-80): 93 % of control

Fc1cccc(Cl)c1CSc1n[nH]c(C(F)(F)F)n1
T/C [4]: 102 % of control
T/C [7]: 100 % of control
T/C [8]: 111 % of control

CC(N)(CSCc1ccccc1)C(=O)O (stereo not given)
T/C (dose: 25.0 mg/kg/injection, schedule: Q01DX009 (ip), vehicle: Klucel (hydroxypropylcellulose) (HPC)): 100 % of control
T/C [18]: 103 % of control
T/C [19]: 107 % of control

— PubChem BioAssay AID330 (DTP/NCI, 2004)
